Test results published in US20120159656A1, “COMPOSITIONS AND METHODS FOR […] DEFECTS” (Galenea Corp., priority 2009, published 2012).
Entries after “also recorded” stand apart in the source; their conditions may differ.

Assays:
[1] = system: high-power gamma oscillations in the PFC; assay: EEG recording from PFC in absence and presence of novel objects before and after PCP; assay type: in vivo, mouse; conditions: PCP 5 mg/kg intraperitoneal, gamma 30-90 Hz
Method: Real-time monitoring of EEGs and single-unit activity (SUA) from PFC was performed via surgical implantation of 8-microwire bundle electrodes (FIG. 5A, B). […] Recordings were made using commercially available multichannel hardware (Multichannel Systems, Reutlingen, Germany). The system is capable of monitoring EEGs and SUA from PFC in freely behaving mice (FIG. 5C) and this neural activity has been characterized (FIG. 5D).
In another series of experiments, the EEG recording techniques were determined to be sensitive enough to detect pharmacologically-induced perturbations in neural activity in vivo. For these studies EEGs from PFC were measured when mice were in the absence and presence of novel environmental stimuli. To determine whether EEGs recorded from PFC are sensitive to a pharmacologic manipulation known to impair cognitive function, animals were injected intraperitoneally with PCP (5 mg/kg) and EEGs were recorded in the absence and presence of novel environmental stimuli. This experiment confirmed that high-power gamma oscillations in the PFC were elicited while animals attend to novel stimuli in the environment (FIG. 10A). […] These observations confirm that the techniques for monitoring EEGs and SUA in the PFC of freely behaving mice are sensitive enough to detect treatments known to inhibit cognition.

[2] = system: EEG power in the PFC; assay: Spectral analysis of PFC EEG by frequency band (area under the curve) in a familiar environment; assay type: in vivo, mouse
Method: Surgery, Animal handling and EEG recording were performed according to the methods disclosed herein (See, e.g., Examples 1-5). Recordings in a novel environment were made upon an animal's first exposure to the recording chamber. Animals were exposed to the recording chamber an additional 3 times (15 min each) to record EEGs from a familiar environment (fourth exposure).
EEG analysis. EEGs were analyzed using an automated FFT-periodogram function with Hamming windows in the Matlab analysis suite (pwelch function, The Mathworks, Inc., Natick MA). EEGs were analyzed in 10 sec intervals and power spectral analyses were computed for each 10 sec interval by averaging 1 sec power spectra with a 0.5 sec overlap across the entire 10 sec. Power across a given frequency band was determined by computing the area under the curve for various frequency bands (Theta: 4-12 Hz; GammaLow: 30-55 Hz; GammaHi: 65-90 Hz; Ripple: 100-300 Hz). Measures of power for each animal were binned and a frequency histogram representing number of events (10 sec each) observed at each power was computed. Frequency histograms across a given genotype were averaged to derive the final EEG power histogram for each frequency band.
To investigate the disease relevance of this intermediate power phenotype, EEGs were recorded from normal control animals in a familiar environment before and after they were treated with the psychotomimetic compound, phencyclidine (PCP) (5 mg/kg, IP).

[3] = system: gamma oscillations recorded from prefrontal cortex (PFC); assay: Continuous EEG recording from PFC of well-habituated mice, maximal gamma power (30-90 Hz); conditions: PCP 5 mg/kg
[4] = control animals, PCP 5 mg/kg IP

Structure (SMILES): c1ccc(C2(N3CCCCC3)CCCCC2)cc1 [PCP, phencyclidine]
- expression of high-power gamma oscillations during novel object presentation [1]: completely blocked the expression of high-power gamma oscillations; also recorded: lack of a bimodal distribution in gamma oscillation power
- average power in the GammaHi frequency band (65-90 Hz) ([2]; control animals treated with PCP 5 mg/kg IP, n=5): 19.12±0.11
- effect on power in the GammaHi frequency band (65-90 Hz) [2, 4]: significant increase in the number of high-powered events; also recorded: increased the average spectral power
- effect on power in the GammaLow frequency band (30-55 Hz) [2, 4]: significantly more high-powered GammaLow events; also recorded: increased the average spectral power
- effect on power in the Ripple frequency band (100-300 Hz) [2, 4]: no significant differences in power; also recorded: no effect
- effect on power in the Theta frequency band (4-12 Hz) [2, 4]: significant increase; also recorded: increased the average spectral power
- distribution of the power of gamma oscillations ([3]; familiar environment, normal mice): unimodal distribution of gamma oscillations with “Intermediate” power
- gamma oscillation power after injection ([3]; well-habituated animals, gamma 30-90 Hz): 4 μV^2/Hz
